Assay results from patent US6392045B1, “9-azobicyclo[3.3.1] non-2-ene derivatives as cholinergic ligands at nicotinic ACH receptors” (NeuroSearch A/S, priority 1997, dated 2002).
Counter-ions that a name gives are not always drawn. Like-named read-outs stand apart in the source and are kept apart here.

Legend:
[1] = target: nAChRs comprised of α4 and β2 subunits (Rattus norvegicus, UniProt P09483+P12390); test: In vitro inhibition of 3H-cytisine binding
Procedure: In Vitro Inhibition of ^3H-cytisine Binding
The predominant subtype with high affinity for nicotine is comprised of α4 and β2 subunits. nAChRs of the latter type can selectively be labelled by the nicotine agonist ^3H-cytisine.
Tissue Preparation: Preparations are performed at 0-4° C. unless otherwise indicated. […] The homogenate is centrifuged at 27,000×g for 10 min. The supernatant is discarded and the pellet is resuspended in fresh buffer and centrifuged a second time. The final pellet is resuspended in fresh buffer (35 ml per g of original tissue) and used for binding assays.
Assay: Aliquots of 500 μl homogenate are added to 25 μl of test solution and 25 μl of ^3H-cytisine (1 nM, final concentration), mixed and incubated for 90 min at 2° C. Non-specific binding is determined using (−)-nicotine (100 μM, final concentration). After incubation the samples are added 5 ml of ice-cold buffer and poured directly onto Whatman GF/C glass fibre filters under suction and immediately washed with 2×5 ml ice-cold buffer. The amount of radioactivity on the filters is determined by conventional liquid scintillation counting. Specific binding is total binding minus non-specific binding.

[2] = target: nAChR formed by the α7 subunit isoform (Rattus norvegicus, UniProt Q05941); test: biochemical; format: binding
[3] = target: T1, α4β2 subtype of nicotinic receptors (neuronal nicotinic receptors) (Rattus norvegicus, UniProt P09483+P12390); test: In vitro inhibition of 3H-epibatidin binding
T1 construct: The forebrain (÷cerebellum) from a male Wistar rat (150-250 g) is homogenized; from tissue; host or cells: rat forebrain (without cerebellum) homogenate (male Wistar)
Procedure: In Vitro Inhibition of ^3H-epibatidin Binding
The high affinity binding site for ^3H-epibatidin is most certainly binding to the α4β2 subtype of nicotinic receptors. The identity of the low affinity site is still unknown; does it represent a second nicotinic receptor or a second site in the same receptor.
Tissue preparation: Preparations are performed at 0-4° C. unless otherwise indicated. The forebrain (÷cerebellum) from a male Wistar rat (150-250 g) is homogenized for 10-20 sec in 20 ml Tris, HCl (50 mM, pH 7.4) using an Ultra-Turrax homogenizer. The tissue suspension is centrifuged at 27,000×g for 10 min. The supernatant is discarded and the pellet is washed three times by centrifugation at 27,000×g for 10 min in 20 ml fresh buffer, and the final pellet is resuspended in fresh buffer (400 ml per g of original tissue) and used for binding assays.
Assay: Aliquots of 2.0 ml homogenate are added to 0.100 ml of test solution and 0.100 ml of ^3H-epibatidin (0.3 nM, final concentration), mixed and incubated for 60 min at room temperature. Non-specific binding is determined using (−)-nicotine (30 μM, final concentration). After incubation the samples are poured directly onto Whatman GF/C glass fibre filters (presoaked in 0.1% PEI for at least 20 min) under suction and immediately washed with 2×5 ml ice-cold buffer. The amount of radioactivity on the filters is determined by conventional liquid scintillation counting. Specific binding is total binding minus non-specific binding.

[4] = read-out: 3H-α-bungarotoxin IC50
[5] = rat cerebral cortex homogenate, 1 nM 3H-cytisine, 90 min at 2° C., read-out: 3H-cytisine IC50

nAChRs comprised of α4 and β2 subunits, sequence (P09483 31-630): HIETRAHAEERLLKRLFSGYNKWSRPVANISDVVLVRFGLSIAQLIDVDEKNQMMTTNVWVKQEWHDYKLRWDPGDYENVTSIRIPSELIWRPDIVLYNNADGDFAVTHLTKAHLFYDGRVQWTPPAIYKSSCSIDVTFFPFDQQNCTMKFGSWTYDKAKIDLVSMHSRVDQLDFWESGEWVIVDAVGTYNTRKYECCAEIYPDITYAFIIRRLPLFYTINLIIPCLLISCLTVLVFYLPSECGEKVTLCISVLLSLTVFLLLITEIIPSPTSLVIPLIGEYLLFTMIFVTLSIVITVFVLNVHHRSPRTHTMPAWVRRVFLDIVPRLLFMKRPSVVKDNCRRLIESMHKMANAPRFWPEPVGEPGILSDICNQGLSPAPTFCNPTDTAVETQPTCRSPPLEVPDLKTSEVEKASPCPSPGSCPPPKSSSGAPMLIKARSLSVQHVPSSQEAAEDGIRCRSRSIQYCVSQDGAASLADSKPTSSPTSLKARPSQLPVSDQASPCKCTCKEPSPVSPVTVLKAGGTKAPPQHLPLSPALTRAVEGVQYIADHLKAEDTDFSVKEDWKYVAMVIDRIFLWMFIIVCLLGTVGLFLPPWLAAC
nAChRs comprised of α4 and β2 subunits, sequence (P12390 25-500): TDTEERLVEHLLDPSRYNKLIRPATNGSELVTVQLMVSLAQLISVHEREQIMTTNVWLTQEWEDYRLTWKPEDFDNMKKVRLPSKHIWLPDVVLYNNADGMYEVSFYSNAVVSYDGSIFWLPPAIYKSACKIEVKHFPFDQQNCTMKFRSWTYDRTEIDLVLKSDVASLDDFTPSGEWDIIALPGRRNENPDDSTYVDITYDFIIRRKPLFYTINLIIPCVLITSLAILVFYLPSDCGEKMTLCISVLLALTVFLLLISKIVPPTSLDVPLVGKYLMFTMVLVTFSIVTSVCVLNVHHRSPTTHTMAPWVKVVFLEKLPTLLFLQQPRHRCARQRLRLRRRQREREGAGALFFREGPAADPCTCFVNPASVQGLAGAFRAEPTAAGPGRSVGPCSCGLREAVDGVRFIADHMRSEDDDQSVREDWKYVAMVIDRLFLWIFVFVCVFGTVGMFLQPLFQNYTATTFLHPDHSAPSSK
T1 sequence (P09483 31-630): as the sequence (P09483 31-630) above
T1 sequence (P12390 25-500): as the sequence (P12390 25-500) above
nAChR formed by the α7 subunit isoform, sequence (Q05941 23-502): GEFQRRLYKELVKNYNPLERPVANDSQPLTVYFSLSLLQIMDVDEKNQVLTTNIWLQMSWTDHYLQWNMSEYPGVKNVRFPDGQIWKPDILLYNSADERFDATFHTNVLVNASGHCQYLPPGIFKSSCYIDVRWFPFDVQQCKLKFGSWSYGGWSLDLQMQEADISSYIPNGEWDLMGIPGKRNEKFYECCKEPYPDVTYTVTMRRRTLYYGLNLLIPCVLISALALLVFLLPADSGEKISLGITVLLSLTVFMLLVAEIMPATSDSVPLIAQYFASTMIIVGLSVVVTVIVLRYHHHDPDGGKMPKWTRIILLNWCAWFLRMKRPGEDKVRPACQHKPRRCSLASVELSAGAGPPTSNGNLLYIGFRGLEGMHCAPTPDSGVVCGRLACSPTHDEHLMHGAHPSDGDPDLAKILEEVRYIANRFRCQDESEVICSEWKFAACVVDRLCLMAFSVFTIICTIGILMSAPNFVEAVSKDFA

| SMILES | IC50 [1] | IC50 [2, 4] | melting point | IC50 [3] | IC50 [1, 5] | IC50 [2] |
| --- | --- | --- | --- | --- | --- | --- |
| CN1C2C=C(c3cccn3C)CC1CCC2 (racemic) [Compound 1d, (±)-3-[2-(1-Methyl-pyrrolyl)]-9-methyl-9-azabicyclo[3.3.1]non-2-ene] | 1800 nM | 1900 nM |  |  |  |  |
| CN1C2C=C(c3cncc(-c4cccnc4)c3)CC1CCC2.O=C(O)/C=C/C(=O)O (racemic) [Compound 2b, (±)-9-Methyl-3-[5-(3-pyridyl)-3-pyridyl]-9-azabicyclo[3.3.1]non-2-ene Fumaric Acid Salt] | 13 nM | 17000 nM | 206 to 208 °C | 240 nM |  |  |
| CN1C2C=C(c3cncc(-c4ccccc4)c3)CC1CCC2 (racemic) [Compound 3a, (±)-9-Methyl-3-[3-(5-phenyl)-pyridyl]-9-azabicyclo[3.3.1]non-2-ene Fumaric Acid Salt] | 25 nM | 4100 nM |  | 150 nM |  |  |
| CN1C2C=C(c3cncc(-c4ccc(Oc5ccccc5)cc4)c3)CC1CCC2.O=C(O)/C=C/C(=O)O (racemic) [Compound 4b, (±)-3-[5-(4-Phenoxyphenyl)-3-pyridyl]-9-methyl-9-azabicyclo[3.3.1]non-2-ene Fumaric Acid Salt] | 350 nM | 17000 nM | 166 to 168 °C | 690 nM |  |  |
| COc1cncc(C2=CC3CCCC(C2)N3)c1 (racemic) [Compound 3d, (±)-9-H-3-(3-(5-methoxy)-pyridyl)-9-azabicyclo[3.3.1]non-2-ene] |  | 17 nM |  | 18 nM | 3 nM |  |
| COc1cncc(C2=CC3CCCC(C2)N3C)c1 (racemic) (as salt: fumaric acid salt) [Compound 2a, (±)-3-[3-(5-Methoxy)-pyridyl]-9-methyl-9-azabicyclo[3.3.1]non-2-ene Fumaric Acid Salt] |  |  | 125 to 126.5 °C |  |  |  |
| CC(=O)C1=CC2CCCC(C1)N2C.O=C(O)/C=C/C(=O)O (racemic) [Compound 2d, (±)-3-Acetyl-9-methyl-9-azabicyclo[3.3.1]non-2-ene Fumaric Acid Salt] | 590 nM | 4200 nM | 149 to 151 °C | 1100 nM |  |  |
| CN1C2C=C(c3ccc4c(c3)OCO4)CC1CCC2.O=C(O)/C=C/C(=O)O (racemic) |  |  | 159 to 163 °C |  |  |  |
| CN1C2C=C(c3cccnc3)CC1CCC2.O=C(O)/C=C/C(=O)O (racemic) [Compound 1a, (±)-9-Methyl-3-(3-pyridyl)-9-azabicyclo[3.3.1]non-2-ene Fumaric Acid Salt] | 23 nM | 500 nM | 164.5 to 166.5 °C | 84 nM |  |  |
| CN1C2C=C(c3ccoc3)CC1CCC2.O=C(O)/C=C/C(=O)O (racemic) [Compound 4c, (±)-3-(3-Furyl)-9-methyl-9-azabicyclo[3.3.1]non-2-ene Fumaric Acid Salt] | 2000 nM | 660 nM | 167 to 174 °C | 5000 nM |  |  |
| CC(=O)Nc1cccc(C2=CC3CCCC(C2)N3C)c1.CC(=O)O (racemic) [Compound 2c, (±)-3-(3-Acetamidophenyl)-9-methyl-9-azabicyclo[3.3.1]non-2-ene Acetic Acid Salt] | 85000 nM | 1700 nM | 59.9 to 63.4 °C | 290000 nM |  |  |
| CN1C2C=C(c3nc4ccccc4s3)CC1CCC2.O=C(O)/C=C/C(=O)O (racemic) |  |  | 176 to 177 °C |  |  |  |
| CN1C2C=C(c3cccc4ncccc34)CC1CCC2 (racemic) |  |  | 142 to 144 °C |  |  |  |
| CN1C2C=C(c3ccc4ccccc4c3)CC1CCC2 (racemic) [Compound 8c, (±)-3-(2-Naphtyl)-9-methyl-9-azabicyclo[3.3.1]non-2-ene Oxalic Acid Salt] |  |  |  | > 300000 nM | > 300000 nM | 370 nM |
| CN1C2C=C(c3cccc(N4CCCC4)c3)CC1CCC2 (racemic) [Compound 3c, (±)-3-[3-(1-Pyrrolidinyl)-phenyl]-9-methyl-9-azabicyclo[3.3.1]non-2-ene] |  |  |  | > 10000 nM | > 10000 nM | 18000 nM |
| CCN1C2C=C(c3cccnc3)CC1CCC2.O=C(O)/C=C/C(=O)O (racemic) [Compound 6a, (±)-9-Ethyl-3-(3-pyridyl)-9-azabicyclo[3.3.1]non-2-ene Fumaric Acid Salt] | 1800 nM | 5800 nM | 193 to 195 °C | 1700 nM |  |  |
| C1=C(c2cccnc2)CC2CCCC1N2 (racemic) [Compound 11c, (±)-9-H-3-(3-Pyridyl)-9-azabicyclo[3.3.1]oct-2-ene Fumaric Acid Salt] |  | 170 nM |  | 46 nM | 4.5 nM |  |
| COc1ccc(C2=CC3CCCC(C2)N3C)cn1 (racemic) [Compound 5b, (±)-3-[3-(6-Methoxy)-pyridyl)]-9-methyl-9-azabicyclo[3.3.1]non-2-ene Fumaric Acid Salt] | 2000 nM | 2300 nM |  | 17000 nM |  |  |
| CN1C2C=C(c3cc4ccccc4o3)CC1CCC2.O=C(O)/C=C/C(=O)O (racemic) [Compound 7c, (±)-3-(2-Benzofuryl)-9-methyl-9-azabicyclo[3.3.1]non-2-ene Fumaric Acid Salt] |  |  | 184 to 186 °C |  | > 300000 nM | 190 nM |
| C1=C(c2cccnc2)CC2CCCC1N2 (racemic) (as salt: fumaric acid salt) [Compound 11c, (±)-9-H-3-(3-Pyridyl)-9-azabicyclo[3.3.1]oct-2-ene Fumaric Acid Salt] |  |  | 188.5 to 190 °C |  |  |  |
| CN1C2C=C(c3ccc4ccccc4c3)CC1CCC2 (racemic) (as salt: oxalic acid salt) [Compound 8c, (±)-3-(2-Naphtyl)-9-methyl-9-azabicyclo[3.3.1]non-2-ene Oxalic Acid Salt] |  |  | 87.9 to 92.2 °C |  |  |  |
| CN1C2C=C(c3cc4ccccc4o3)CC1CCC2 (racemic) [Compound 4a, (±)-3-(2-Benzofuryl)-9-methyl-9-azabicyclo[3.1]non-2-ene Fumaric Acid Salt] |  |  |  | > 300000 nM | > 300000 nM | 190 nM |
| C1=C(c2cccnc2)CC2CCCC1N2Cc1ccccc1.O=C(O)/C=C/C(=O)O (racemic) |  |  | 186 to 187 °C |  |  |  |
| COc1ccc(C2=CC3CCCC(C2)N3C)cn1 (racemic) (as salt: fumaric acid salt) [Compound 5b, (±)-3-[3-(6-Methoxy)-pyridyl)]-9-methyl-9-azabicyclo[3.3.1]non-2-ene Fumaric Acid Salt] |  |  | 116 to 124 °C |  |  |  |
| COc1cncc(C2=CC3CCCC(C2)N3C)c1 (racemic) [Compound 2a, (±)-3-[3-(5-Methoxy)-pyridyl]-9-methyl-9-azabicyclo[3.3.1]non-2-ene Fumaric Acid Salt] | 17 nM | 2000 nM |  | 76 nM |  |  |
| CN1C2C=C(c3cc4ccccc4s3)CC1CCC2 (racemic) [Compound 7a, (±)-3-(2-Benzothienyl)-9-methyl-9-azabicyclo[3.3.1]non-2-ene] |  |  |  | 280000 nM | 280000 nM | 160 nM |
| CN1C2C=C(c3cncc(-c4ccccc4)c3)CC1CCC2 (racemic) (as salt: fumaric acid salt) [Compound 3a, (±)-9-Methyl-3-[3-(5-phenyl)-pyridyl]-9-azabicyclo[3.3.1]non-2-ene Fumaric Acid Salt] |  |  | 147.5 to 149.5 °C |  |  |  |
